Consider 73 sequences from the supplement of paper PMC11208160.
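Note: IS621 recombinase and bridge RNA in Escherichia coli cells.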

This series can be described thus: recombinant barcode read abundance after kanamycin selection (control-corrected) (log10(CPM+1)); higher = more efficient recombination; sequences stand for … in AGTGCAGAGAAAATCGGCCAGTTTTCTCTGCCTGCAGTCCGCATGCCGT…AGATTTATGCAGCGGACTGCCTTTCTCCCAAAGTGATAAACCGGACAGTATCATGGACCGGTTTTCCCGGTAATCCGTATTTGCAAGGTTGGTTTCACT; site = the 11-nt target. Here is the method:
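Pooled E. coli target-specificity screen for the IS621 bridge recombinase. Each library plasmid pairs an 11-nt target (CT core) with a bridge RNA whose target-binding loop (9-nt LTG + 4-nt RTG) is reprogrammed; the rest of the 177-nt WT IS621 bridge RNA scaffold is fixed. The plasmid is co-electroporated with a WT donor plasmid; recombinase is induced with 0.1 mM IPTG and recombinants are selected on kanamycin. Recombinant barcodes are sequenced, converted to CPM, averaged over two biological replicates and corrected by the unselected control CPM. Molecule = full bridge RNA written as DNA: LTG = specificity nt 1-9, RTG = reverse complement of specificity nt 8-11, in the WT scaffold.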
As for “ACCGAGACTTGGGTTCTAACCTGTTGCCT (site ACCGCGACTAG)”, the “recombinant barcode read abundance (log10)” value was 0.113.
Under “ACCGAGACTTGGGTTCTAACCTGTTGCCT (site ACCGGGACTAG)” stands 0.0279; under “ACCGAGACTTGGGTTCTAACCTGTTGCCT (site ACCGTGACTAG)”, 0.0449; under “ACCGAGGCTTGGGTTCTAACCTGTTGCCT (site AACGACGCTAG)”, 0.193.
For the sequence “ACCGAGGCTTGGGTTCTAACCTGTTGCCT (site ACCGAGGCTAG)”, the “recombinant barcode read abundance (log10)” value was 0.824.
The same measure for “ACCGCGACTTGGGTTCTAACCTGTTGCCT (site ACCGAGACTAG)”: 0.0792; for “ACCGCGACTTGGGTTCTAACCTGTTGCCT (site ACCGCGACTAG)”: 0.0908; for “ACCGCGACTTGGGTTCTAACCTGTTGCCT (site ACCGGGACTAG)”: 0.218.
As for “ACCGCGACTTGGGTTCTAACCTGTTGCCT (site ACCGTGACTAG)”, the “recombinant barcode read abundance (log10)” value came to 0.121.
Under “ACCGCTTCTTGGGTTCTAACCTGTTGCCT (site AACGCTTCTAG)” stands 0.096; under “ACCGCTTCTTGGGTTCTAACCTGTTGCCT (site ACCGCTTCTAG)”, 0.494.
The same measure for “ACCGCTTCTTGGGTTCTAACCTGTTGCCT (site AGCGCTTCTAG)”: 0.0685; for “ACCGCTTCTTGGGTTCTAACCTGTTGCCT (site ATCGCTTCTAG)”: 0.329; for “ACCGTAGCTTGGGTTCTAACCTGTTGCCT (site ACCGTACCTAG)”: 0.33.
Consider “ACCGTAGCTTGGGTTCTAACCTGTTGCCT (site ACCGTAGCTAG)”, for which the “recombinant barcode read abundance (log10)” value worked out at 1.07.
Consider “ACCGTGACTTGGGTTCTAACCTGTTGCCT (site ACCGAGACTAG)”, for which the “recombinant barcode read abundance (log10)” value came out at 0.0423.
The same measure for “ACCGTGACTTGGGTTCTAACCTGTTGCCT (site ACCGCGACTAG)”: 0.272; for “ACCGTGACTTGGGTTCTAACCTGTTGCCT (site ACCGGGACTAG)”: 0.0292.
The same measure for “ACCGTGACTTGGGTTCTAACCTGTTGCCT (site ACCGTGACTAG)”: 1.96.
Turning to “ACCTGACCTTGGGTTCTAACCTGTTGCGG (site ACCTGACCTCC)”, the “recombinant barcode read abundance (log10)” value worked out at 1.6.
The same measure for “ACCTGACCTTGGGTTCTAACCTGTTGCGG (site CGGACTGCTAG)”: 0.12; for “ACCTGCCCTTGGGTTCTAACCTGTTGCCT (site ACCTGACCTAG)”: 0.154; for “ACCTGCCCTTGGGTTCTAACCTGTTGCCT (site ACCTGCCCTAG)”: 1.38.
The same measure for “ACCTGCCCTTGGGTTCTAACCTGTTGCCT (site ACCTGGCCTAG)”: 0.0614; for “ACCTGCCCTTGGGTTCTAACCTGTTGCCT (site ACCTGTCCTAG)”: 0.232.
The same measure for “ACCTGTACTTGGGTTCTAACCTGTTGCCT (site ACCAGTACTAG)”: 0.0531; for “ACCTGTACTTGGGTTCTAACCTGTTGCCT (site ACCCGTACTAG)”: 0.147.
With “ACCTGTACTTGGGTTCTAACCTGTTGCCT (site ACCGGTACTAG)”, the “recombinant barcode read abundance (log10)” value was 0.0956.
The same measure for “ACCTGTACTTGGGTTCTAACCTGTTGCCT (site ACCTGTACTAG)”: 0.183; for “ACCTTAGCTTGGGTTCTAACCTGTTGCGG (site ACCCTAACTCC)”: 0.263.
Under “ACCTTAGCTTGGGTTCTAACCTGTTGCGG (site ACCTTAGCTCC)” stands 1.79; under “ACCTTGCCTTGGGTTCTAACCTGTTGCCT (site ACATTGCCTAG)”, 0.178.
With “ACCTTGCCTTGGGTTCTAACCTGTTGCCT (site ACCTTGCCTAG)”, the “recombinant barcode read abundance (log10)” value turned out to be 0.012.
The same measure for “ACCTTGCCTTGGGTTCTAACCTGTTGCCT (site ACGTTGCCTAG)”: 0.875.
The same measure for “ACCTTGCCTTGGGTTCTAACCTGTTGCCT (site ACTTTGCCTAG)”: 0.0414; for “ACGAATCCTTGGGTTCTAACCTGTTGCTT (site ACGAATCCTAA)”: 0.423.
The same measure for “ACGAATCCTTGGGTTCTAACCTGTTGCTT (site ACGACTCCTAA)”: 0.0122; for “ACGAATCCTTGGGTTCTAACCTGTTGCTT (site ACGAGTCCTAA)”: 0.461.
Regarding “ACGAATCCTTGGGTTCTAACCTGTTGCTT (site ACGATTCCTAA)”, the “recombinant barcode read abundance (log10)” value turned out to be 0.0624.
Under “ACGACTCCTTGGGTTCTAACCTGTTGCTG (site ACGACTCCTCA)” stands 0.485; under “ACGACTCCTTGGGTTCTAACCTGTTGCTG (site ACGCCTCCTCA)”, 0.0825; under “ACGACTCCTTGGGTTCTAACCTGTTGCTG (site ACGGCTCCTCA)”, 0.0665.
For “ACGACTCCTTGGGTTCTAACCTGTTGCTG (site ACGTCTCCTCA)”, the “recombinant barcode read abundance (log10)” value came out at 0.0836.
Regarding “ACGACTCCTTGGGTTCTAACCTGTTGCTT (site ACGAATCCTAA)”, the “recombinant barcode read abundance (log10)” value worked out at 0.224.
Consider “ACGACTCCTTGGGTTCTAACCTGTTGCTT (site ACGACTCCTAA)”, for which the “recombinant barcode read abundance (log10)” value was found to be 0.0167.
In the case of “ACGACTCCTTGGGTTCTAACCTGTTGCTT (site ACGAGTCCTAA)”, the “recombinant barcode read abundance (log10)” value turned out to be 0.0152.
“ACGACTCCTTGGGTTCTAACCTGTTGCTT (site ACGATTCCTAA)”: the “recombinant barcode read abundance (log10)” value stood at 0.0399.
Under “ACGACTTCTTGGGTTCTAACCTGTTGCCT (site ACGACTACTAG)” stands 0.0265; under “ACGACTTCTTGGGTTCTAACCTGTTGCCT (site ACGACTCCTAG)”, 0.167; under “ACGACTTCTTGGGTTCTAACCTGTTGCCT (site ACGACTGCTAG)”, 0.
Under “ACGACTTCTTGGGTTCTAACCTGTTGCCT (site ACGACTTCTAG)” stands 0.731; under “ACGAGTCCTTGGGTTCTAACCTGTTGCTT (site ACGAATCCTAA)”, 0.365.
As to “ACGAGTCCTTGGGTTCTAACCTGTTGCTT (site ACGACTCCTAA)”, the “recombinant barcode read abundance (log10)” value was determined as 0.161.
Regarding “ACGAGTCCTTGGGTTCTAACCTGTTGCTT (site ACGAGTCCTAA)”, the “recombinant barcode read abundance (log10)” value was determined as 0.606.
On to “ACGAGTCCTTGGGTTCTAACCTGTTGCTT (site ACGATTCCTAA)”, for which the “recombinant barcode read abundance (log10)” value is 0.0892.
The same measure for “ACGCCTCCTTGGGTTCTAACCTGTTGCTG (site ACGACTCCTCA)”: 0.0447; for “ACGCCTCCTTGGGTTCTAACCTGTTGCTG (site ACGCCTCCTCA)”: 0.384.
Under “ACGCCTCCTTGGGTTCTAACCTGTTGCTG (site ACGGCTCCTCA)” stands 0.269.
The same measure for “ACGCCTCCTTGGGTTCTAACCTGTTGCTG (site ACGTCTCCTCA)”: 0.175; for “ACGCGGCCTTGGGTTCTAACCTGTTGCCT (site ACGCGGCCTAG)”: 0.103.
As to “ACGCGGCCTTGGGTTCTAACCTGTTGCCT (site CCGCGGCCTAG)”, the “recombinant barcode read abundance (log10)” value is 0.42.
The same measure for “ACGCGGCCTTGGGTTCTAACCTGTTGCCT (site GCGCGGCCTAG)”: 0.147; for “ACGCGGCCTTGGGTTCTAACCTGTTGCCT (site TCGCGGCCTAG)”: 0.108.
The same measure for “ACGCGTGCTTGGGTTCTAACCTGTTGCGG (site ACGCGTGCTCC)”: 0.727.
As to “ACGCGTGCTTGGGTTCTAACCTGTTGCGG (site CTAGTAACTTG)”, the “recombinant barcode read abundance (log10)” value came out at 0.019.
In the case of “ACGGAATCTTGGGTTCTAACCTGTTGCCG (site ACGGAATCTCG)”, the “recombinant barcode read abundance (log10)” value is 0.46.
With “ACGGAATCTTGGGTTCTAACCTGTTGCCG (site TAAATCCCTTC)”, the “recombinant barcode read abundance (log10)” value came to 0.245.
The same measure for “ACGGAGTCTTGGGTTCTAACCTGTTGCTA (site ACGGAGTCTTA)”: 1.3; for “ACGGAGTCTTGGGTTCTAACCTGTTGCTA (site TACAGACCTCT)”: 0.0854; for “ACGGCTACTTGGGTTCTAACCTGTTGCTT (site ACGGCTACTAA)”: 0.83.
Under “ACGGCTACTTGGGTTCTAACCTGTTGCTT (site GGTTAGTCTCG)” stands 0.0618.
Turning to “ACGGCTTCTTGGGTTCTAACCTGTTGCTA (site ACGGCTTCTTA)”, the “recombinant barcode read abundance (log10)” value was found to be 0.494.
Under “ACGGCTTCTTGGGTTCTAACCTGTTGCTA (site AGGGCTTCTTA)” stands 0.485.
